According to US20140050779A1, “[…]-2 INHIBITORS AND USES THEREOF” (SINGAPORE HEALTH SERVICES PTE. LTD., priority 2011, published 2014):

How the values were obtained:
TG-2 [1] = assay: TG-2 colorimetric microassay (transamidase activity) in lysate of treated mouse scleral fibroblasts; format: cell-based; conditions: for transamidase activity of endogenous cellular TG-2: mouse scleral fibroblasts, 0.1, 1, 10 and 100 μM for 5 days, concentration-dependent
Description: All cells used in examples described herein were between passages 2-4. Passaged cells were plated at a concentration of 2×10^5/mL into 6 well plates containing DMEM with 10% FBS. […] Old media was removed from wells and 1 mL of drug was added with fresh full medium and incubated at 37° C. Fresh drugs were replaced daily consecutively for the next 5 days to avoid oxidation. The drugs/media was removed and wells were washed twice with 1×PBS. 200 μl of RIPA lysis buffer was added per well and incubated for 5 minutes and cells were scrapped into an eppendorf tube. The cells were stored at −20° C. until sonication. The cells were sonicated on ice thrice at 20% output power for 5 seconds each time and rested 1 minute in between each turn. Cell debris was spun down at 12000 rpm for 20 minutes. The supernatant was poured into a new eppendorf tube and cell concentrations were determined using the Dc Protein assay Kit (Bio-Rad, MA). Passaged cells were plated at a concentration of 1×10^5 into 6 well plates containing DMEM with 10% FBS. […] Freshly prepared muscarinic agents' at base line, 0.1, 1, 10 and 100 μM concentrations were added for 5 days (Table 2). The culture medium was removed and fresh medium containing the same muscarinic drug added every day to avoid drug changes such as atropine oxidation. Cell lysate was collected for relative quantitative (q) PCR and protein analysis at day 5.
This assay was designed to assess the cross-linking activity of TG-2 between two proteins. TG activity was measured with TG-2 colorimetric Microassay kit (TG-Covtest, Covalab, Cambridge, UK). 150-200 μg of total protein was used per well for the TG-2 assay. Transglutaminase standards (Sigma) were used as a positive control. EDTA was used to inhibit the enzyme activity as a negative control.
The approximate volume of reagents to use, the wavelengths to use to read absorbance, the incubation times were determined from a previous study that have carried out experiments with similar principles as described in Perez Alea M, Kitamura M, Martin G, Thomas V, Hitomi K, El Alaoui S., “Development of an isoenzyme-specific colorimetric assay for tissue transglutaminase 2 cross-linking activity”, Anal Biochem. 2009 Jun. 15; 389(2):150-6, Epub 2009 March 24. All reagents used and protein coated plates were part of the kit. Biotin cadaverine was reconstituted with 6 ml of deionized water and 90 μl was added into each well of the 96 well plate that comes coated with CBZ-GLN-GLY. The rest of the steps were followed as in the manufacturer's instructions and finally absorbance was read at 450 nm using a microplate reader (TECAN, Austria). All incubations were performed with gentle shaking on a laboratory orbital shaker.
The TG-2 colorimetric assay serves as a high throughput and quantitative assay to assess transamidase activity. […] In vivo studies with these drugs were also conducted to determine the effect on myopia development (see FIGS. 14 and 15).

hM5 = biological target: T1, hM5 (Homo sapiens, UniProt P08912); assay: himbacine binding to cloned muscarinic receptor subtypes; conditions: cloned receptor subtype; data not shown
T1 sequence (P08912 1-532): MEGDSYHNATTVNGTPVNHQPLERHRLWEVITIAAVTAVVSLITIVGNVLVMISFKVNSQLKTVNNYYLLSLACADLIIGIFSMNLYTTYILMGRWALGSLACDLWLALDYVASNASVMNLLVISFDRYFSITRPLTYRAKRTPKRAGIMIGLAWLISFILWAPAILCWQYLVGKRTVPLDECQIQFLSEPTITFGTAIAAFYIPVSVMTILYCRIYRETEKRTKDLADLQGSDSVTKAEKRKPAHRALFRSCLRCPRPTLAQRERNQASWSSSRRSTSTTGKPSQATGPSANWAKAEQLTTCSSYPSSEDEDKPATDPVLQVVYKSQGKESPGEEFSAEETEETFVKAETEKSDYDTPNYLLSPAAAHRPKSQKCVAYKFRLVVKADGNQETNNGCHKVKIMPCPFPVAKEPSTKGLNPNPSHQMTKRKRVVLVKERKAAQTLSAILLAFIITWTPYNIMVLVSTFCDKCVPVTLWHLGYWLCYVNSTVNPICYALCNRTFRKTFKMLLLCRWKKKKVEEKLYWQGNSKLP

TG-2 [2] = assay: TG-2 colorimetric microassay (transamidase activity) in lysate of treated mouse scleral fibroblasts; format: cell-based; conditions: murine scleral derived fibroblasts, 0.01-10 μM for 5 days
TG-5 = assay: Western blot of TG proteins in human scleral fibroblasts after muscarinic agents; format: cell-based; conditions: 0.01-10 μM for 5 days
TG-3 = assay: as above; format: cell-based; conditions: 0.01-10 μM for 5 days
TG-1 = assay: as above; format: cell-based; conditions: 0.01-10 μM for 5 days

Compound | TG-2 activity, strongest reduction among the antagonists (TG-2 [1]; mouse scleral fibroblasts) | transamidase activity of endogenous cellular TG-2 (TG-2 [1]) | TG2 activity as compared to atropine (TG-2 [1]; mouse scleral fibroblasts, high concentration (100 μM)) | Kd (hM5) [nM] | TG-2 activity, strongest reduction (TG-2 [1]; mouse scleral fibroblasts, 0.1 μM, saturated at 1, 10 and 100 μM) | transamidase (cross-linking) activity of TG-2 (TG-2 [2]) | TG-5 protein level (TG-5) | TG-3 protein level (TG-3) | TG-1 protein level (TG-1)
C[C@@H]1OC(=O)[C@H]2C[C@H]3CCCC[C@@H]3[C@@H](/C=C/[C@H]3CCC[C@H](C)N3C)[C@@H]12 [himbacine] | most significantly reduced | reduced | most significantly reduced | 296 |  |  |  |  | 
CN1[C@@H]2CC[C@H]1C[C@@H](OC(=O)C(CO)c1ccccc1)C2 (stereo partly shown) [atropine] |  | reduced |  |  | most significantly reduced | reduction | reduced | increased | reduced
